Active and inactive are the calls of the source. The rule behind the calls is not given here.
test system: not listed separately; experiment: Half life in rat liver microsomes; type: ADME, Microsome; details: not given

Compound | half-life
C#Cc1ccc(Nc2c(C(=O)NOCCO)c3n(c(=O)c2F)CCC3)c(F)c1 | > 200 min
Cn1c(Nc2ccc(Br)cc2F)c(C(=O)NOC[C@H](O)CO)c2c1C(=O)CCC2 | 85 min
O=C(NOC[C@@H](O)CO)c1c(Nc2ccc(I)cc2F)c(F)c(=O)n2c1CCC2 | > 200 min

Other lines, results leading:

half-life | Compound
36 min | Cn1c(Nc2ccc(I)cc2F)c(C(=O)NOC[C@@H](O)CO)c2c1C(=O)CCC2
20 min | Cn1c(Nc2ccc(Br)cc2F)c(C(=O)NOCCO)c2c1C(=O)CCC2

test system: COLO 205; experiment: Cytotoxicity against human COLO205 cells after 72 hrs by MTS assay; details: COLO 205, 72 h

Compound | EC50
C#Cc1ccc(Nc2c(C(=O)NOCCO)c3n(c(=O)c2F)CCC3)c(F)c1 | 12 nM
Cn1c(Nc2ccc(Br)cc2F)c(C(=O)NOC[C@H](O)CO)c2c1C(=O)CCC2 | 58 nM
O=C(NOC[C@@H](O)CO)c1c(Nc2ccc(I)cc2F)c(F)c(=O)n2c1CCC2 | 44 nM
Cn1c(Nc2ccc(I)cc2F)c(C(=O)NOC[C@@H](O)CO)c2c1C(=O)CCC2 | 2 nM
Cn1c(Nc2ccc(Br)cc2F)c(C(=O)NOCCO)c2c1C(=O)CCC2 | 34 nM

molecular target: RAC-gamma serine/threonine-protein kinase (Homo sapiens) (UniProt Q9Y243); experiment: Inhibition of AKT3 at 10 uM; details: not given

inhibition | Compound
inactive | O=C(NOC[C@@H](O)CO)c1c(Nc2ccc(I)cc2F)c(F)c(=O)n2c1CCC2

test system: A-375; experiment: Cytotoxicity against human A375 cells after 72 hrs by MTS assay; details: A-375, 72 h

Compound | EC50
C#Cc1ccc(Nc2c(C(=O)NOCCO)c3n(c(=O)c2F)CCC3)c(F)c1 | 33 nM
Cn1c(Nc2ccc(Br)cc2F)c(C(=O)NOC[C@H](O)CO)c2c1C(=O)CCC2 | 72 nM
O=C(NOC[C@@H](O)CO)c1c(Nc2ccc(I)cc2F)c(F)c(=O)n2c1CCC2 | 139 nM
Cn1c(Nc2ccc(I)cc2F)c(C(=O)NOC[C@@H](O)CO)c2c1C(=O)CCC2 | 2.5 nM
Cn1c(Nc2ccc(Br)cc2F)c(C(=O)NOCCO)c2c1C(=O)CCC2 | 31 nM

molecular target: Angiopoietin-1 receptor (Homo sapiens) (UniProt Q02763); experiment: Inhibition of Tie2 at 10 uM; details: not given
Sequence (Q02763 whole entry): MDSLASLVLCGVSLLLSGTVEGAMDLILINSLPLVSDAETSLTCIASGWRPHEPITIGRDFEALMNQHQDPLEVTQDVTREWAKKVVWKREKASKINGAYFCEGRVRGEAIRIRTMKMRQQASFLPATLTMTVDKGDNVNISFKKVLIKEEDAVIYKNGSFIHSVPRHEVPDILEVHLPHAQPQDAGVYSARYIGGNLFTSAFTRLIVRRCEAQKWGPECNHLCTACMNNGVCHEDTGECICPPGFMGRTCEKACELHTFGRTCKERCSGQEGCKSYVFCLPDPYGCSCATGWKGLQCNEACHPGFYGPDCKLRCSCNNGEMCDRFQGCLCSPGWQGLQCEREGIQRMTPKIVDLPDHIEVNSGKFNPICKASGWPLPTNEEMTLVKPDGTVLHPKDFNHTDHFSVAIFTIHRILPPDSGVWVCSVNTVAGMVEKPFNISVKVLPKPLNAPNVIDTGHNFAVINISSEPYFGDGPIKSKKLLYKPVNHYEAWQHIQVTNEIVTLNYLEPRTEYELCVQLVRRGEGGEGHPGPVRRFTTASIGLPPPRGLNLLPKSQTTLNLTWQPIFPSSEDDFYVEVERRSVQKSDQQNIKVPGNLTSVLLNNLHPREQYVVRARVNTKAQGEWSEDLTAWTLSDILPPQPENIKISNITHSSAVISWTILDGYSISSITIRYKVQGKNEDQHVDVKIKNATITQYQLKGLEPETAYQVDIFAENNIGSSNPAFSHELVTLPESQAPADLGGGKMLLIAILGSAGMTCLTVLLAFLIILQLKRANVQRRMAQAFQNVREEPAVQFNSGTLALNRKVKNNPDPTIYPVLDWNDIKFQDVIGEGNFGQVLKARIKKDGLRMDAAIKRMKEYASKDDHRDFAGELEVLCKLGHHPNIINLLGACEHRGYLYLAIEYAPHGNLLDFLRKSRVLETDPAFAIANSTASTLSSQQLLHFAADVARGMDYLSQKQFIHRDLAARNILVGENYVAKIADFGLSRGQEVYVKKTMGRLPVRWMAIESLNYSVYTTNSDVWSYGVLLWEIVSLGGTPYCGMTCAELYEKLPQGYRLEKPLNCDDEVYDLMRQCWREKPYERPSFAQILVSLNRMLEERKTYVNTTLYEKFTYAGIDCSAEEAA

inhibition | Compound
inactive | O=C(NOC[C@@H](O)CO)c1c(Nc2ccc(I)cc2F)c(F)c(=O)n2c1CCC2

test system: not listed separately; experiment: Inhibition of cytochrome P450 at 10 uM; type: ADME; details: not given

inhibition (INH) | Compound
Not Active | O=C(NOC[C@@H](O)CO)c1c(Nc2ccc(I)cc2F)c(F)c(=O)n2c1CCC2

molecular target: Glycogen synthase kinase-3 beta (Homo sapiens) (UniProt P49841); experiment: Inhibition of GSK3beta at 10 uM; details: not given

inhibition | Compound
inactive | O=C(NOC[C@@H](O)CO)c1c(Nc2ccc(I)cc2F)c(F)c(=O)n2c1CCC2

molecular target: Proto-oncogene tyrosine-protein kinase Src (Homo sapiens) (UniProt P12931); experiment: Inhibition of cSRC at 10 uM; details: not given

inhibition | Compound
inactive | O=C(NOC[C@@H](O)CO)c1c(Nc2ccc(I)cc2F)c(F)c(=O)n2c1CCC2

molecular target: Platelet-derived growth factor receptor beta (Homo sapiens) (UniProt P09619); experiment: Inhibition of PDGFRbeta at 10 uM; details: not given

inhibition | Compound
inactive | O=C(NOC[C@@H](O)CO)c1c(Nc2ccc(I)cc2F)c(F)c(=O)n2c1CCC2

molecular target: Protein kinase C alpha type (Homo sapiens) (UniProt P17252); experiment: Inhibition of PKCalpha at 10 uM; details: not given

inhibition | Compound
inactive | O=C(NOC[C@@H](O)CO)c1c(Nc2ccc(I)cc2F)c(F)c(=O)n2c1CCC2

molecular target: Calcium/calmodulin-dependent protein kinase type 1D (Homo sapiens) (UniProt Q8IU85); experiment: Inhibition of CAMK1delta at 10 uM; details: not given

inhibition | Compound
inactive | O=C(NOC[C@@H](O)CO)c1c(Nc2ccc(I)cc2F)c(F)c(=O)n2c1CCC2

molecular target: RAF proto-oncogene serine/threonine-protein kinase (Homo sapiens) (UniProt P04049); experiment: Inhibition of c-RAF at 10 uM; details: not given

inhibition | Compound
inactive | O=C(NOC[C@@H](O)CO)c1c(Nc2ccc(I)cc2F)c(F)c(=O)n2c1CCC2

molecular target: Tyrosine-protein kinase SYK (Homo sapiens) (UniProt P43405); experiment: Inhibition of Syk at 10 uM; details: not given

inhibition | Compound
inactive | O=C(NOC[C@@H](O)CO)c1c(Nc2ccc(I)cc2F)c(F)c(=O)n2c1CCC2

molecular target: Epidermal growth factor receptor (Homo sapiens) (UniProt P00533); experiment: Inhibition of EGFR at 10 uM; details: not given
Sequence (P00533 whole entry): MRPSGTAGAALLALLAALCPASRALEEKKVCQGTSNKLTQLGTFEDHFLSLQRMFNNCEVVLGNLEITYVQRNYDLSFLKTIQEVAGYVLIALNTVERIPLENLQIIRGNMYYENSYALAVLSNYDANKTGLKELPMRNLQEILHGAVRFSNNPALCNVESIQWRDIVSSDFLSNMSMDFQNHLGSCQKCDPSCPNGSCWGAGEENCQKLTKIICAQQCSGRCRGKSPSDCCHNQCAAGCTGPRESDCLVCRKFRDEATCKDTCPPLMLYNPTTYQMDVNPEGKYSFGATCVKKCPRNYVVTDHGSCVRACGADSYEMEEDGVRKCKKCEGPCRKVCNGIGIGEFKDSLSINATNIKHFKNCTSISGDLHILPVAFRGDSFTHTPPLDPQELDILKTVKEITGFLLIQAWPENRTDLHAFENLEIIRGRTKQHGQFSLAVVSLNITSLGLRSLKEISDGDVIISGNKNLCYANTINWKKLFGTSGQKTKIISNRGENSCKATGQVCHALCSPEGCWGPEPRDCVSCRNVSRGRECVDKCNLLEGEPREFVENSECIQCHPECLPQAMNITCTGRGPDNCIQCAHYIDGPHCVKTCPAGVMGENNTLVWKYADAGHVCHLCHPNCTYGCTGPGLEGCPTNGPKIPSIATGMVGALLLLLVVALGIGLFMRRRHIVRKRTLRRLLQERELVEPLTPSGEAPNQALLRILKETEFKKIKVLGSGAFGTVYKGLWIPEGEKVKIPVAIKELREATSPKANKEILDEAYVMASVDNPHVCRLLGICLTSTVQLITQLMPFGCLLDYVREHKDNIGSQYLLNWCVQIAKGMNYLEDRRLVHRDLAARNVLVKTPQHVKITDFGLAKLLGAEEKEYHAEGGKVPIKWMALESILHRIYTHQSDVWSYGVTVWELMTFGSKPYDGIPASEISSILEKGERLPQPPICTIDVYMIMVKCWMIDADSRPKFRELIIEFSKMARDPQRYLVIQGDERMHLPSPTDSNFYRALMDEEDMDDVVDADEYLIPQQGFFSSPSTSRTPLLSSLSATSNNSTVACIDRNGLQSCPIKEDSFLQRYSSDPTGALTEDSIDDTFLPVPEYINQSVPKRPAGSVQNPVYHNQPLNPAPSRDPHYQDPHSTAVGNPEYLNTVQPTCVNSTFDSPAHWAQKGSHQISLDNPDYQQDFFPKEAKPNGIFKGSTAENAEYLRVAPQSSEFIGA

inhibition | Compound
inactive | O=C(NOC[C@@H](O)CO)c1c(Nc2ccc(I)cc2F)c(F)c(=O)n2c1CCC2

molecular target: Cyclin-dependent kinase 2/cyclin A (Homo sapiens) (UniProt P24941+P20248+P78396); experiment: Inhibition of CDK2/cyclin A at 10 uM; type: protein-complex assay; details: not given

inhibition | Compound
inactive | O=C(NOC[C@@H](O)CO)c1c(Nc2ccc(I)cc2F)c(F)c(=O)n2c1CCC2

molecular target: Insulin receptor (Homo sapiens) (UniProt P06213); experiment: Inhibition of IR at 10 uM; details: not given

inhibition | Compound
inactive | O=C(NOC[C@@H](O)CO)c1c(Nc2ccc(I)cc2F)c(F)c(=O)n2c1CCC2

molecular target: Serine/threonine-protein kinase PLK3 (Homo sapiens) (UniProt Q9H4B4); experiment: Inhibition of PLK3 at 10 uM; details: not given

inhibition | Compound
inactive | O=C(NOC[C@@H](O)CO)c1c(Nc2ccc(I)cc2F)c(F)c(=O)n2c1CCC2

molecular target: Hepatocyte growth factor receptor (Homo sapiens) (UniProt P08581); experiment: Inhibition of cMET at 10 uM; details: not given

inhibition | Compound
inactive | O=C(NOC[C@@H](O)CO)c1c(Nc2ccc(I)cc2F)c(F)c(=O)n2c1CCC2

molecular target: 3-phosphoinositide-dependent protein kinase 1 (Homo sapiens) (UniProt O15530); experiment: Inhibition of PDK1 at 10 uM; details: not given
Sequence (O15530 whole entry, looked up): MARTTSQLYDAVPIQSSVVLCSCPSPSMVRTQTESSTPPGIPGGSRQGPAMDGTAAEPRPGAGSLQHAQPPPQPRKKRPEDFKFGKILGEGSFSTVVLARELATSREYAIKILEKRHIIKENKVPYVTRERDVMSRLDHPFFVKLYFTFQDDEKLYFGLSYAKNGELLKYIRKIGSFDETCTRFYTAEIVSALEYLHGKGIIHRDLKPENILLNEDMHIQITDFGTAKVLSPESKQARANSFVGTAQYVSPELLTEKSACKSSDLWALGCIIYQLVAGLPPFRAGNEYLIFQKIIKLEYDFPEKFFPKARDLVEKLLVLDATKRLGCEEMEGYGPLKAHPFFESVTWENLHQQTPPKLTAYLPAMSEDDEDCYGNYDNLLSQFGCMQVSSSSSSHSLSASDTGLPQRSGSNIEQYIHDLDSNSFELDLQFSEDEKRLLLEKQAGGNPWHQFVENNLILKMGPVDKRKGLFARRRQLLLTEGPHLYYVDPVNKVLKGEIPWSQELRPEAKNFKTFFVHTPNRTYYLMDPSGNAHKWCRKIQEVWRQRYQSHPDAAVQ

inhibition | Compound
inactive | O=C(NOC[C@@H](O)CO)c1c(Nc2ccc(I)cc2F)c(F)c(=O)n2c1CCC2

molecular target: Dual specificity mitogen-activated protein kinase kinase 1 (Homo sapiens, UniProt Q02750); experiment: Inhibition of MEK1-mediated ERK1 phosphorylation using IPTTPITTYFFFK-5FAM-COOH as substrate by fluorescent polarization assay; details: not given
Sequence (Q02750 whole entry): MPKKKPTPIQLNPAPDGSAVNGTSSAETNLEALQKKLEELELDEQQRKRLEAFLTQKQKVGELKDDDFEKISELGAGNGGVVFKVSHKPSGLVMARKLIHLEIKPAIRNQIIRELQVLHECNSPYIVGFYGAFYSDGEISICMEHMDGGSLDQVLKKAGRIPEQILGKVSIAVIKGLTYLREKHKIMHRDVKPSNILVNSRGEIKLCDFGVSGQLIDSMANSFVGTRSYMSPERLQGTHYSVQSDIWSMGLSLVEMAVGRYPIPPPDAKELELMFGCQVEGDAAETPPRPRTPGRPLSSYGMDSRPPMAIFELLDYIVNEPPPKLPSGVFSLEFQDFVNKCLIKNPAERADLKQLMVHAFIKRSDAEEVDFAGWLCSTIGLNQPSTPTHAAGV

Compound | IC50
C#Cc1ccc(Nc2c(C(=O)NOCCO)c3n(c(=O)c2F)CCC3)c(F)c1 | 69 nM
Cn1c(Nc2ccc(Br)cc2F)c(C(=O)NOC[C@H](O)CO)c2c1C(=O)CCC2 | 52 nM
O=C(NOC[C@@H](O)CO)c1c(Nc2ccc(I)cc2F)c(F)c(=O)n2c1CCC2 | 94 nM

Now those with a lower IC50, led by results:

IC50 | Compound
17 nM | Cn1c(Nc2ccc(I)cc2F)c(C(=O)NOC[C@@H](O)CO)c2c1C(=O)CCC2
18 nM | Cn1c(Nc2ccc(Br)cc2F)c(C(=O)NOCCO)c2c1C(=O)CCC2

molecular target: Tyrosine-protein kinase ABL1 (Homo sapiens) (UniProt P00519); experiment: Inhibition of ABL1 at 10 uM; details: not given
Sequence (P00519 whole entry): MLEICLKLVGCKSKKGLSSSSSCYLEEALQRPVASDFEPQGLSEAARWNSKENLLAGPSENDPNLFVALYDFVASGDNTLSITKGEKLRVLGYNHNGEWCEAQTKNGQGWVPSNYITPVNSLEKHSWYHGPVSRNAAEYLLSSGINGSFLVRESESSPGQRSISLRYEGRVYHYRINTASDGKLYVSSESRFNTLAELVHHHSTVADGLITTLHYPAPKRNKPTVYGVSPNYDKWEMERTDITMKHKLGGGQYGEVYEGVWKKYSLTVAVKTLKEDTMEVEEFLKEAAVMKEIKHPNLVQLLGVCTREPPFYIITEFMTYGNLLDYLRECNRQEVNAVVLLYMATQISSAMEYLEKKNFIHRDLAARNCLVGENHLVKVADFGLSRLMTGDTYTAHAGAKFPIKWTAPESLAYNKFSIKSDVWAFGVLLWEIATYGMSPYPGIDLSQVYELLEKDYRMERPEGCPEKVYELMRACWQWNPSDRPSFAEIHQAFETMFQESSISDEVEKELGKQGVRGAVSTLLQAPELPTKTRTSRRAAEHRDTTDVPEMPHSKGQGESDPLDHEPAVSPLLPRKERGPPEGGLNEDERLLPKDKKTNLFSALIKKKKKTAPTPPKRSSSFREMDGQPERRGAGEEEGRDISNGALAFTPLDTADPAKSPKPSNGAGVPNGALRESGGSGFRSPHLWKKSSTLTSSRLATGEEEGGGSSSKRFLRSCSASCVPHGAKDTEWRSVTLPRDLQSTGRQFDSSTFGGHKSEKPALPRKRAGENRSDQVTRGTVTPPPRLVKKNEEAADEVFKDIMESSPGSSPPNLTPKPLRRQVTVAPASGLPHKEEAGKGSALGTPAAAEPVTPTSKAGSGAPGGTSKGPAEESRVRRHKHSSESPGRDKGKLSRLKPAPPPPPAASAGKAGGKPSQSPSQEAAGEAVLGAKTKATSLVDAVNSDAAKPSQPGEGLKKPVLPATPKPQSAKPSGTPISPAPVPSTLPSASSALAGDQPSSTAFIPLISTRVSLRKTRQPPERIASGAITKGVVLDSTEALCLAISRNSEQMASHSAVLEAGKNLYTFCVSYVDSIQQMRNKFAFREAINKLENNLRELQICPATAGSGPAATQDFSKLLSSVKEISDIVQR

inhibition | Compound
inactive | O=C(NOC[C@@H](O)CO)c1c(Nc2ccc(I)cc2F)c(F)c(=O)n2c1CCC2

molecular target: T1, Tyrosine-protein kinase JAK3 (Homo sapiens) (UniProt P52333); experiment: Inhibition of JAK3 at 10 uM; details: not given
T1 sequence (whole entry): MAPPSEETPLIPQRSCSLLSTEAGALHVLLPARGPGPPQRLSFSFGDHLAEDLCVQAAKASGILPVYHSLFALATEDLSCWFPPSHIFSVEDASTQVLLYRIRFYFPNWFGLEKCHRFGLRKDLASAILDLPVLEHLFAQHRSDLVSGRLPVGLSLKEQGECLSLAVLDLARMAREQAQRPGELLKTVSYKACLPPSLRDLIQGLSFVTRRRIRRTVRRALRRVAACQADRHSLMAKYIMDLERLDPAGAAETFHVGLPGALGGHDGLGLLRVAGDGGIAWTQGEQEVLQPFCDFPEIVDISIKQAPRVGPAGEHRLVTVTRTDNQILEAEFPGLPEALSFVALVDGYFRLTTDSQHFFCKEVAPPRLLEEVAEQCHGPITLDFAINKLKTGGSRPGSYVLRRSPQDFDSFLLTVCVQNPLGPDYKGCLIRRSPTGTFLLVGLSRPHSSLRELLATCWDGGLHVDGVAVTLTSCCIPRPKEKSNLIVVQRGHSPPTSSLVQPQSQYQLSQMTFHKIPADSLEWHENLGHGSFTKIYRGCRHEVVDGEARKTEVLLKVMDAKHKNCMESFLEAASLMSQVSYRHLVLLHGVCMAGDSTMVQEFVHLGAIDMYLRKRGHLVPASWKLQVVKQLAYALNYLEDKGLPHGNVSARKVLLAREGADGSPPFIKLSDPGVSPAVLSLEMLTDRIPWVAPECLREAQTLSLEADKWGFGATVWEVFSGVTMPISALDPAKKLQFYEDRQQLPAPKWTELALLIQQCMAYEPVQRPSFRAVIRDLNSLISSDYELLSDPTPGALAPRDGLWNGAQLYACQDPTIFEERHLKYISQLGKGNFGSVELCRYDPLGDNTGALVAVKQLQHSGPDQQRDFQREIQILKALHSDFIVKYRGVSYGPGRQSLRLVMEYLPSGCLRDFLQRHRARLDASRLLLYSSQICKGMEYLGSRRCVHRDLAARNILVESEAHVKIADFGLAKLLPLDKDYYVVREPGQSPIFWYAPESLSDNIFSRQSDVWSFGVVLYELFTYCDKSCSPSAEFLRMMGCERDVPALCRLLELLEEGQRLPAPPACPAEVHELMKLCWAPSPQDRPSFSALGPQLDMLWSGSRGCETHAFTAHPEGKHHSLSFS

inhibition | Compound
inactive | O=C(NOC[C@@H](O)CO)c1c(Nc2ccc(I)cc2F)c(F)c(=O)n2c1CCC2

test system: not listed separately; experiment: Half life in human liver microsomes; type: ADME, Microsome; details: not given

Compound | half-life
C#Cc1ccc(Nc2c(C(=O)NOCCO)c3n(c(=O)c2F)CCC3)c(F)c1 | 128 min
Cn1c(Nc2ccc(Br)cc2F)c(C(=O)NOC[C@H](O)CO)c2c1C(=O)CCC2 | 94 min
O=C(NOC[C@@H](O)CO)c1c(Nc2ccc(I)cc2F)c(F)c(=O)n2c1CCC2 | > 200 min

Continued, values first:

half-life | Compound
22 min | Cn1c(Nc2ccc(I)cc2F)c(C(=O)NOC[C@@H](O)CO)c2c1C(=O)CCC2
25 min | Cn1c(Nc2ccc(Br)cc2F)c(C(=O)NOCCO)c2c1C(=O)CCC2

molecular target: Mitogen-activated protein kinase 14 (Homo sapiens) (UniProt Q16539); experiment: Inhibition of p38alpha at 10 uM; details: not given

inhibition | Compound
inactive | O=C(NOC[C@@H](O)CO)c1c(Nc2ccc(I)cc2F)c(F)c(=O)n2c1CCC2

— ChEMBL document CHEMBL2010712, “Design and synthesis of orally available MEK inhibitors with potent in vivo antitumor efficacy” (Bioorg Med Chem Lett, 2012)
